Results on ten molecules are retold here after patent publication US7371412B2, “Pharmaceutical compositions comprising an extract of Euphorbia prostrata” (priority 2004, dated 2008).

In assay [1] the test system is acetic acid-induced chemonociception. Description: Acetic acid-induced writhing. It is filed as in vivo. The conditions noted are these: mice; for antinociceptive effect in the writhing test: p.o. (In general: Writhing tests count abdominal constrictions after an irritant is injected.)
The test system of assay [2] is carrageenan-induced hemorrhoids. As to the kind of experiment: Antihaemorrhoidal activity, anorectum:body weight ratio model. It is filed as in vivo. The conditions noted are these: rats, p.o.; for effect against carrageenan-induced hemorrhoids: chronic administration (7 days). As to the method: The antihaemorrhoidal activity of the Euphorbia prostrata extract was assessed and compared with reference drug, diosmin using anorectum:body weight ratio model in rats (modified method of Jia et al., 2000).
FIG. 1: Effect of Euphorbia prostrata extract (E.p. extract) against carrageenan-induced hemorrhoids in rats.
FIG. 2: Effect of individual component of Euphorbia prostrata extract (E.p. extract) against carrageenan-induced hemorrhoids in rats.

Assay [3] relates to oedematous response to croton oil. The conditions noted are these: Della Loggia et al., 1986; cited from earlier work.
Assay [4] can be described thus: In vitro superoxide radical scavenging activity. It is filed as biochemical. The conditions noted are these: 25 μg. The source says: FIG. 9: In vitro superoxide radical scavenging activity of Euphorbia prostrata extract (E.p. extract).
In assay [5] the test system is histamine release. As to conditions: in vivo (Bhargava and Westfall, 1969); cited from earlier work.
Assay [6] concerns rat liver microsomes. The conditions noted are these: CCl4 induced peroxidation; rat liver microsomes (Cholbi et al., 1991); cited from earlier work. In general terms: Microsomes from liver hold many membrane-bound enzymes, among them those of drug oxidation.
Assay [7] deals with murine macrophages. As to conditions: murine macrophages (Xagorari et al., 2001); cited from earlier work.
The test system of assay [8] is COX-2. As to conditions: lipopolysaccharide activated RAW 264.7 macrophages (Liang et al., 1999); cited from earlier work.
In assay [9] the test system is iNOS (inducible nitric oxide synthase). The conditions noted are these: lipopolysaccharide activated RAW 264.7 macrophages (Liang et al., 1999); cited from earlier work.
The subject of assay [10] is carrageenan-induced hyperalgesia. As to the kind of experiment: Carrageenan-induced hyperalgesia, paw pressure test. In kind it is in vivo. As to conditions: rats; 2 mg/kg. The source says:
FIG. 7: Effect of Euphorbia prostrata extract (E.p. extract) against carageenan-induced hyperalgesia in rats.

Consider `O=c1cc(-c2ccc(O)cc2)oc2cc(O[C@@H]3O[C@H](CO)[C@@H](O)[C@H](O)[C@H]3O)cc(O)c12` [apigenin-7-glucoside], for which, in [1] (0.5, 1.0, and 2.0 mg/kg), the “antinociceptive effect in the writhing test” value is listed as “dose-dependent antinociceptive effect”. In addition, the “effect against carrageenan-induced hemorrhoids” value in assay [2] (0.478 mg/kg) is listed as “showed effect”. The “oedematous response to croton oil” value in assay [3] is recorded as “dose dependent inhibition”. For tocopherol, the “superoxide radical scavenging activity” value in assay [4] came out at 25.54%. `O=c1oc2c(O)c(O)cc3c(=O)oc4c(O)c(O)cc1c4c23` [ellagic acid]: the “effect against carrageenan-induced hemorrhoids” value in assay [2] (1.204 mg/kg) is recorded as “showed effect”. The “histamine release mediated by histamine liberators (compound 48/80, dextran and polymyxin B sulfate)” value in assay [5] is recorded as “suppress histamine release”. On to `O=c1cc(-c2ccc(O)c(O)c2)oc2cc(O)cc(O)c12` [luteolin], for which, in [6], the antiperoxidative activity entry is given as “significant antiperoxidative activity”. For the same molecule, the “protein tyrosin phosphorylation, nuclear factor-κB mediated gene expression and pro-inflammatory cytokine production” value in assay [7] is reported as “inhibits”. For the molecule `O=c1cc(-c2ccc(O)cc2)oc2cc(O)cc(O)c12` [apigenin], in assay [8], the “inhibition of transcriptional activation of COX-2” value is “most potent inhibitor”. Besides, the “inhibition of transcriptional activation of iNOS” value in assay [9] is given as “most potent inhibitor”. Also, the antiperoxidative activity entry in assay [6] was “significant antiperoxidative activity”. Take `COc1ccc(-c2cc(=O)c3c(O)cc(O[C@@H]4O[C@H](CO[C@@H]5O[C@@H](C)[C@H](O)[C@@H](O)[C@H]5O)[C@@H](O)[C@H](O)[C@H]4O)cc3o2)cc1O` [diosmin, reference compound]: in assay [2] (50 mg/kg, 7 days), the “anorectal body weight ratio” value is recorded as “significantly decreased”; the “histopathological examination of the anorectum” value was “intact mucosal layer with prominent mucosal cells and mild leukocyte migration”. With `O=C(O)c1cc(O)c(O)c(O)c1` [gallic acid], in assay [2] (1.123 mg/kg), the “effect against carrageenan-induced hemorrhoids” value is on record as “showed effect”.

For the molecule `O=c1cc(-c2ccc(O)c(O)c2)oc2cc(O[C@@H]3O[C@H](CO)[C@@H](O)[C@H](O)[C@H]3O)cc(O)c12` [luteolin-7-glucoside], the “antinociceptive effect in the writhing test” value in [1] (0.25, 0.5, and 1.0 mg/kg) was “dose-dependent antinociceptive effect”. As to `CS(=O)(=O)Nc1ccc([N+](=O)[O-])cc1Oc1ccccc1` [nimesulide, reference compound], the pain threshold result in [1] (2 mg/kg) is recorded as “significantly increased”. The paw withdrawal latencies result in assay [10] is reported as “increased”. Take `O=c1cc(-c2ccc(O)c(O)c2)oc2cc(O[C@@H]3O[C@H](CO)[C@H](O)[C@H](O)[C@H]3O)cc(O)c12` [luteolin-7-galactoside]: in assay [3], the “oedematous response to croton oil” value was “dose dependent inhibition”.
